Assay results: patent US9790230B2 (Hoffmann-La Roche Inc., priority 2015, dated 2017)

How the values were obtained:
mouse TAAR1 = mouse TAAR1 (Mus musculus (Mouse), UniProt Q923Y8); test: Radioligand binding assay on mouse TAAR1
Method: Radioligand Binding Assay on Mouse TAAR1
(§1) Membrane Preparation and Radioligand Binding.
HEK-293 cells stably expressing mouse TAAR1 were maintained at 37° C. and 5% CO2 in DMEM high glucose medium, containing fetal calf serum (10%, heat inactivated for 30 min at 56° C.), penicillin/streptomycin (1%), and 375 μg/ml geneticin (Gibco). Cells were released from culture flasks using trypsin/EDTA, harvested, washed twice with ice-cold PBS (without Ca^2+ and Mg^2+), pelleted at 1'000 rpm for 5 min at 4° C., frozen and stored at −80° C. Frozen pellets were suspended in 20 ml HEPES-NaOH (20 mM, pH 7.4) containing 10 mM EDTA and homogenized with a Polytron (PT 6000, Kinematica) at 14'000 rpm for 20 s. The homogenate was centrifuged at 48'000×g for 30 min at 4° C. Subsequently, the supernatant was removed and discarded, and the pellet resuspended in 20 ml HEPES-NaOH (20 mM, pH 7.4) containing 0.1 mM EDTA using the Polytron (20 s at 14'000 rpm). This procedure was repeated and the final pellet resuspended in HEPES-NaOH containing 0.1 mM EDTA and homogenized using the Polytron. Typically, aliquots of 2 ml membrane portions were stored at −80° C. With each new membrane batch the dissociation constant (Kd) was determined via a saturation curve. The TAAR1 radioligand ^3[H]—(S)-4-[(ethyl-phenyl-amino)-methyl]-4,5-dihydro-oxazol-2-ylamine (described in WO 2008/098857) was used at a concentration equal to the calculated Kd value, that was usually around 0.7 nM, resulting in the binding of approximately 0.5% of the radioligand and a specific binding representing approximately 70% of the total binding. Nonspecific binding was defined as the amount of ^3[H]—(S)-4-[(ethyl-phenyl-amino)-methyl]-4,5-dihydro-oxazol-2-ylamine bound in the presence of 10 M unlabeled ligand. All compounds were tested at a broad range of concentrations (10 pM to 10 μM) in duplicates. […] The 96 deep well plates were incubated for 1 hr at 4° C. Incubations were terminated by rapid filtration through Unifilter-96 plates (Packard Instrument Company) and glass filters GF/C (Perkin Elmer) presoaked for 1 hr in polyethylenimine (0.3%) and washed 3 times with 1 ml of cold binding buffer. After addition of 45 μl of Microscint 40 (PerkinElmer) the Unifilter-96 plate was sealed and after 1 hr the radioactivity counted using a TopCount Microplate Scintillation Counter (Packard Instrument Company).

rat TAAR1 = rat TAAR1 (Rattus norvegicus (Rat), UniProt Q923Y9); test: Radioligand binding assay on rat TAAR1;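 note: membranes from HEK293 cells stably transfected with rat TAAR1, tritiated TAAR1 radioligand, 1 h incubation at 4 °C, nonspecific binding determined with excess unlabeled ligand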
rat TAAR1, sequence (Q923Y9 whole entry): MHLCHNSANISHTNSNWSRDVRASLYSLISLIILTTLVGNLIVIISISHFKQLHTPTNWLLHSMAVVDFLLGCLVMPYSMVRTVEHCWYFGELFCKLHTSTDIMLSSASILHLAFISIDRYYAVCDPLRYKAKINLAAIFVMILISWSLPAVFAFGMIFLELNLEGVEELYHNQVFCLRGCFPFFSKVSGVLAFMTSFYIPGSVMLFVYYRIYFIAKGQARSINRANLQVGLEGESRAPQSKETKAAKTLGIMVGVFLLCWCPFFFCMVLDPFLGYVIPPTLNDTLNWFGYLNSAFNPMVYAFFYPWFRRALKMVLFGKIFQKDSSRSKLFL
Method: as §1
HEK-293 cells stably expressing rat TAAR1 were maintained at 37° C. and 5% CO2 in DMEM high glucose medium, containing fetal calf serum (10%, heat inactivated for 30 min at 56° C.), penicillin/streptomycin (1%), and 375 μg/ml geneticin (Gibco). Cells were released from culture flasks using trypsin/EDTA, harvested, washed twice with ice-cold PBS (without Ca^2+ and Mg^2+), pelleted at 1'000 rpm for 5 min at 4° C., frozen and stored at −80° C. Frozen pellets were suspended in 20 ml HEPES-NaOH (20 mM, pH 7.4) containing 10 mM EDTA and homogenized with a Polytron (PT 6000, Kinematica) at 14′000 rpm for 20 s. The homogenate was centrifuged at 48'000×g for 30 min at 4° C. Subsequently, the supernatant was removed and discarded, and the pellet resuspended in 20 ml HEPES-NaOH (20 mM, pH 7.4) containing 0.1 mM EDTA using the Polytron (20 s at 14'000 rpm). This procedure was repeated and the final pellet resuspended in HEPES-NaOH containing 0.1 mM EDTA and homogenized using the Polytron. Typically, aliquots of 2 ml membrane portions were stored at −80° C. With each new membrane batch the dissociation constant (Kd) was determined via a saturation curve. […] Nonspecific binding was defined as the amount of 3 [H]—(S)-4-[(ethyl-phenyl-amino)-methyl]-4,5-dihydro-oxazol-2-ylamine bound in the presence of 10 M unlabeled ligand. All compounds were tested at a broad range of concentrations (10 pM to 10 μM) in duplicates. […] The 96 deep well plates were incubated for 1 hr at 4° C. Incubations were terminated by rapid filtration through Unifilter-96 plates (Packard Instrument Company) and glass filters GF/C (Perkin Elmer) presoaked for 1 hr in polyethylenimine (0.3%) and washed 3 times with 1 ml of cold binding buffer. After addition of 45 μl of Microscint 40 (PerkinElmer) the Unifilter-96 plate was sealed and after 1 hr the radioactivity counted using a TopCount Microplate Scintillation Counter (Packard Instrument Company).

mouse TAAR1, sequence (Q923Y8 whole entry): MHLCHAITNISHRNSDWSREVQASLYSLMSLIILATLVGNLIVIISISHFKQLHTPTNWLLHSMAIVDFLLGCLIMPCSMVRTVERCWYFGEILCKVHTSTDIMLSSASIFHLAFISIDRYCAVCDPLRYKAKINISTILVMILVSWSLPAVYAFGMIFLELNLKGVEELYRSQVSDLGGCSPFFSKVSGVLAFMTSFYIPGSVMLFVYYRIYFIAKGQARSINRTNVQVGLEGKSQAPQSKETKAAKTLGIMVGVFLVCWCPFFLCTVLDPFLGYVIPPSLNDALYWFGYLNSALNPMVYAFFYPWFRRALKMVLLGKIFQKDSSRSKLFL

SMILES	Ki (mouse TAAR1) [nM]	Ki (rat TAAR1) [nM]	Kd (mouse TAAR1; read-out: dissociation constant (Kd) of the TAAR1 radioligand, mouse TAAR1 membranes, saturation curve, usual value) [nM]	Kd (rat TAAR1; read-out: dissociation constant (Kd) of the TAAR1 radioligand, rat TAAR1 membranes, saturation curve, usual value) [nM]
c1ccc([C@@H]2O[C@H]3CN[C@@H]2C3)nc1 [Example 104, (1R,3R,4R)-3-(2-Pyridyl)-2-oxa-5-azabicyclo[2.2.1]heptane]	> 1490	> 1500		
c1ccc([C@H]2O[C@@H]3CN[C@H]2C3)nc1 [Example 105, (1S,3S,4S)-3-(2-Pyridyl)-2-oxa-5-azabicyclo[2.2.1]heptane]	46.5	324		
Fc1ccccc1[C@@H]1O[C@H]2CN[C@@H]1C2 [Example 106, (1R,3S,4R)-3-(2-Fluorophenyl)-2-oxa-5-azabicyclo[2.2.1]heptane]	1030	836		
CCN(C[C@H]1COC(N)=N1)c1ccccc1 [reference compound]			~0.7	~2.3
